Assay results as given in PubChem BioAssay AID248 (DTP/NCI, 2004).
Several values for one entry are separate records, joined by “and”; a condition that tells them apart may be missing. Equal entries are not always repeated. Toxic doses and inconclusive results are not listed. No stated cut-off is given here; in the data, active means T/C of 150% or more; inactive means T/C below 125%.

System: L1210 leukemia ip in BDF1 mice, survival T/C
Assay: NCI In Vivo Anticancer Drug Screen. Data for tumor model L1210 Leukemia (intraperitoneal) in B6D2F1 (BDF1) mice
Conditions: endpoint: mean survival time, higher = longer survival
How it was run: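 Transplantable tumor model; survival measured in treated vs vehicle control mice. Value = treated/control.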

[1] = dose: 100.0 mg/kg/injection, schedule: Q01DX009 (ip), vehicle: saline with Tween-80
[2] = dose: 100.0 mg/kg/injection, schedule: Q04DX003 (ip), vehicle: saline with Tween-80
[3] = dose: 200.0 mg/kg/injection, schedule: Q01DX009 (ip), vehicle: saline with Tween-80
[4] = dose: 200.0 mg/kg/injection, schedule: Q04DX003 (ip), vehicle: saline with Tween-80
[5] = dose: 400.0 mg/kg/injection, schedule: Q04DX003 (ip), vehicle: saline with Tween-80
[6] = dose: 100.0 mg/kg/injection, schedule: Q01DX001 (ip), vehicle: saline
[7] = dose: 200.0 mg/kg/injection, schedule: Q01DX001 (ip), vehicle: saline
[8] = dose: 400.0 mg/kg/injection, schedule: Q01DX001 (ip), vehicle: saline
[9] = dose: 50.0 mg/kg/injection, schedule: Q01DX009 (ip), vehicle: saline
[10] = dose: 100.0 mg/kg/injection, schedule: Q01DX009 (ip), vehicle: saline
[11] = dose: 200.0 mg/kg/injection, schedule: Q01DX009 (ip), vehicle: saline
[12] = dose: 5.0 mg/kg/injection, schedule: Q01DX001 (ip), vehicle: saline
[13] = dose: 10.0 mg/kg/injection, schedule: Q01DX001 (ip), vehicle: saline
[14] = dose: 12.5 mg/kg/injection, schedule: Q04DX003 (ip), vehicle: Klucel (hydroxypropylcellulose) (HPC)
[15] = dose: 100.0 mg/kg/injection, schedule: Q04DX003 (ip), vehicle: Klucel (hydroxypropylcellulose) (HPC)
[16] = dose: 50.0 mg/kg/injection, schedule: Q01DX001 (ip), vehicle: carboxymethylcellulose (CMC)

Measured: T/C

CNc1c(Cl)c(Cl)cc(Cl)c1Cl
inactive: [1] 104 % of control | [2] 95 % of control | [3] 110 % of control | [4] 114 % of control | [5] 93 % of control

CCC(=O)N1CCN(C(=O)CC)c2ccccc21
inactive: dose: 50.0 mg/kg/injection, schedule: Q01DX001 (ip), vehicle: saline 98 % of control | [6] 104 % of control | [7] 104 % of control | [8] 101 % of control

O=C1c2ccccc2C(=O)c2c3c(cc(NCCNCCO)c21)N(CCO)CCN3
inactive: dose: 25.0 mg/kg/injection, schedule: Q01DX009 (ip), vehicle: DMSO 119 % of control | dose: 50.0 mg/kg/injection, schedule: Q01DX009 (ip), vehicle: DMSO 121 % of control | dose: 200.0 mg/kg/injection, schedule: Q01DX009 (ip), vehicle: DMSO 122 % of control

CCOCCc1ccncc1
inactive: [9] 101 % of control | [10] 94 % of control | [11] 90 % of control

CCCCNC1=C(N2CC2)C(=O)C(NCCCC)=C(N2CC2)C1=O
inactive: dose: 1.25 mg/kg/injection, schedule: Q01DX001 (ip), vehicle: saline 105 % of control | dose: 1.25 mg/kg/injection, schedule: Q01DX009 (ip), vehicle: saline 110 % of control and 111 % of control | dose: 1.56 mg/kg/injection, schedule: Q04DX003 (ip), vehicle: Klucel (hydroxypropylcellulose) (HPC) 113 % of control | dose: 2.5 mg/kg/injection, schedule: Q01DX001 (ip), vehicle: saline 100 % of control | dose: 2.5 mg/kg/injection, schedule: Q01DX009 (ip), vehicle: saline 105 % of control and 109 % of control | dose: 3.12 mg/kg/injection, schedule: Q04DX003 (ip), vehicle: Klucel (hydroxypropylcellulose) (HPC) 121 % of control | [12] 98 % of control | dose: 5.0 mg/kg/injection, schedule: Q01DX009 (ip), vehicle: saline 118 % of control | [13] 105 % of control | dose: 10.0 mg/kg/injection, schedule: Q01DX009 (ip), vehicle: saline 114 % of control | [14] 110 % of control | dose: 18.0 mg/kg/injection, schedule: Q04DX003 (ip), vehicle: Klucel (hydroxypropylcellulose) (HPC) 112 % of control

O=C(O)C1=CC2C=C(Cl)C=CC2OC1=O (centres undefined)
inactive: [12] 95 % of control | [13] 93 % of control | dose: 20.0 mg/kg/injection, schedule: Q01DX001 (ip), vehicle: saline 96 % of control | dose: 40.0 mg/kg/injection, schedule: Q01DX001 (ip), vehicle: saline 96 % of control | dose: 80.0 mg/kg/injection, schedule: Q01DX001 (ip), vehicle: saline 96 % of control | [6] 111 % of control | [7] 100 % of control

CCN(CC)CCCC(C)Nc1ccnc(/C=C/c2ccc(Cl)cc2)c1 (centres undefined)
inactive: dose: 12.0 mg/kg/injection, schedule: Q01DX009 (ip), vehicle: Klucel (hydroxypropylcellulose) (HPC) 92 % of control | [14] 97 % of control | dose: 25.0 mg/kg/injection, schedule: Q01DX009 (ip), vehicle: Klucel (hydroxypropylcellulose) (HPC) 100 % of control | dose: 25.0 mg/kg/injection, schedule: Q01DX009 (ip), vehicle: saline 101 % of control | dose: 25.0 mg/kg/injection, schedule: Q04DX003 (ip), vehicle: Klucel (hydroxypropylcellulose) (HPC) 103 % of control | dose: 50.0 mg/kg/injection, schedule: Q01DX009 (ip), vehicle: Klucel (hydroxypropylcellulose) (HPC) 95 % of control | [9] 95 % of control | dose: 50.0 mg/kg/injection, schedule: Q04DX003 (ip), vehicle: Klucel (hydroxypropylcellulose) (HPC) 97 % of control | dose: 75.0 mg/kg/injection, schedule: Q04DX003 (ip), vehicle: saline 105 % of control | [15] 96 % of control | dose: 300.0 mg/kg/injection, schedule: Q04DX003 (ip), vehicle: saline 93 % of control

CCC(C)OC(c1ccc2c(c1)OCO2)C(C)Br (centres undefined)
inactive: dose: 100.0 mg/kg/injection, schedule: Q04DX002 (ip), vehicle: saline with Tween-80 107 % of control | dose: 200.0 mg/kg/injection, schedule: Q04DX002 (ip), vehicle: saline with Tween-80 93 % of control | dose: 400.0 mg/kg/injection, schedule: Q04DX002 (ip), vehicle: saline with Tween-80 96 % of control

CCOc1ccccc1/C=N/N1CCN(/N=C/c2ccccc2OCC)CC1
inactive: [6] 100 % of control | [7] 90 % of control | [8] 90 % of control

CN(N)/C(N)=N/N
inactive: dose: 100.0 mg/kg/injection, schedule: Q04DX003 (ip), vehicle: saline 97 % of control | dose: 200.0 mg/kg/injection, schedule: Q04DX003 (ip), vehicle: saline 102 % of control | dose: 400.0 mg/kg/injection, schedule: Q04DX003 (ip), vehicle: saline 97 % of control

CC(C)=CCNc1ncnc2c1c(C(N)=O)cn2C1OC(CO)C(O)C1O (centres undefined)
inactive: dose: 100.0 mg/kg/injection, schedule: Q01DX005 (ip), vehicle: saline 107 % of control | dose: 200.0 mg/kg/injection, schedule: Q01DX005 (ip), vehicle: saline 123 % of control

C=CCc1ccc(OC(=O)Nc2ccc(S(=O)(=O)N3CCCCC3)cc2)c(OC)c1
inactive: dose: 12.5 mg/kg/injection, schedule: Q01DX001 (ip), vehicle: other 98 % of control | dose: 25.0 mg/kg/injection, schedule: Q01DX001 (ip), vehicle: other 90 % of control | dose: 50.0 mg/kg/injection, schedule: Q01DX001 (ip), vehicle: other 90 % of control

N/C(=N\O)c1ccncc1
inactive: [10] 94 % of control | [11] 96 % of control

CCCCCCN(CCCCCC)C1=C(Cl)C(=O)c2ccccc2C1=O
inactive: dose: 12.5 mg/kg/injection, schedule: Q01DX001 (ip), vehicle: carboxymethylcellulose (CMC) 97 % of control | dose: 25.0 mg/kg/injection, schedule: Q01DX001 (ip), vehicle: carboxymethylcellulose (CMC) 103 % of control | [16] 96 % of control

CCCCCCC(=O)/C=C\c1ccccc1
inactive: dose: 100.0 mg/kg/injection, schedule: Q01DX001 (sc), vehicle: other 94 % of control | dose: 200.0 mg/kg/injection, schedule: Q01DX001 (sc), vehicle: other 91 % of control | dose: 400.0 mg/kg/injection, schedule: Q01DX001 (sc), vehicle: other 100 % of control

O=c1[nH]c(=S)n2ncnc2[nH]1
inactive: [2] 109 % of control | [4] 102 % of control | [5] 95 % of control

C/C=C1\SC(=S)NC1=O
inactive: dose: 20.0 mg/kg/injection, schedule: Q01DX001 (ip), vehicle: other 100 % of control | dose: 40.0 mg/kg/injection, schedule: Q01DX001 (ip), vehicle: other 100 % of control | dose: 80.0 mg/kg/injection, schedule: Q01DX001 (ip), vehicle: other 101 % of control

O=C(O)CCCCCCCCC(=O)c1ccccc1
inactive: [1] 95 % of control | [3] 91 % of control | dose: 400.0 mg/kg/injection, schedule: Q01DX009 (ip), vehicle: saline with Tween-80 95 % of control

Cn1cnc(N)c1C(=N)[Se]
inactive: dose: 6.25 mg/kg/injection, schedule: Q01DX009 (ip), vehicle: water 86 % of control | dose: 12.5 mg/kg/injection, schedule: Q04DX003 (ip), vehicle: water 108 % of control | dose: 25.0 mg/kg/injection, schedule: Q04DX003 (ip), vehicle: water 95 % of control

COc1ccc(N=Cc2c(O)ccc3ccccc23)cc1
inactive: [15] 107 % of control | dose: 200.0 mg/kg/injection, schedule: Q04DX003 (ip), vehicle: Klucel (hydroxypropylcellulose) (HPC) 98 % of control | dose: 400.0 mg/kg/injection, schedule: Q04DX003 (ip), vehicle: Klucel (hydroxypropylcellulose) (HPC) 102 % of control

COC1=C(Nc2cccc(C)c2)C(=O)C(OC)=C(Nc2cccc(C)c2)C1=O
inactive: [16] 94 % of control | dose: 100.0 mg/kg/injection, schedule: Q01DX001 (ip), vehicle: carboxymethylcellulose (CMC) 96 % of control | dose: 200.0 mg/kg/injection, schedule: Q01DX001 (ip), vehicle: carboxymethylcellulose (CMC) 94 % of control | dose: 400.0 mg/kg/injection, schedule: Q01DX001 (ip), vehicle: carboxymethylcellulose (CMC) 91 % of control

N=C1SCCS1
inactive: dose: 100.0 mg/kg/injection, schedule: Q04DX002 (ip), vehicle: saline 92 % of control | dose: 200.0 mg/kg/injection, schedule: Q04DX002 (ip), vehicle: saline 101 % of control | dose: 400.0 mg/kg/injection, schedule: Q04DX002 (ip), vehicle: saline 105 % of control
